Source: PubChem BioAssay AID179 (DTP/NCI, 2004)
Calls of active or inactive are those of the source.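 Rule for the calls: active = compounds giving half or more protection of infected cells from virus-caused growth loss, again on retest; inactive = the rest.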

Tested on: CEM cells HIV-1 protection, formazan growth assay
Test: NCI AIDS Antiviral Assay
Settings: for IC50: measured here: growth of uninfected CEM cells
In short: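 Protection of CEM cells against HIV-1 measured as cell growth via soluble formazan read-out, with five concentrations tested on both infected and uninfected cells; failure to protect may reflect toxicity.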

Row | Structure (SMILES) | EC50 | IC50 | outcome
1 | Cc1cc(N=Nc2ccc([N+](=O)[O-])cc2)c(NCC(O)C(O)C(O)CO)cc1C (configuration not stated) | > 200 µM | 34.7 µM | –
2 | CN1C(=O)C(O)(CC(=O)c2ccccc2)c2ccccc21 (configuration not stated) | > 200 µM | 35.5 µM | –
3 | COC1CC(C)(NC(C)=O)C2OC(c3ccccc3)OCC2O1 (configuration not stated) | > 200 µM | > 200 µM | –
4 | Clc1cccc(N2CCN(CCN3CCc4c([nH]c5ccccc45)C3c3cccnc3)CC2)c1 (configuration not stated) | > 2.19 µM | > 2.19 µM | –
5 | COC(=O)c1cc2c(=O)n(C)c3ccccc3n2c1C(=O)OC | > 56.2 µM | 32.4 µM | –
6 | CC(=O)OC1Cn2ccc[n+]2C1 (configuration not stated) | > 200 µM | > 200 µM | –
7 | COP(=O)(OC)C(Cc1cn(C(C)=O)c2ccccc12)C(=O)O (configuration not stated) | > 200 µM | > 200 µM | –
8 | O=C(NCc1ccccc1)C1C(=O)C(=O)N(Cc2ccccc2)C1=O (configuration not stated) | > 269 µM | > 269 µM | –
9 | O=[N+]([O-])c1cccc(/C=N\NS(=O)(=O)c2ccc(Cl)cc2)c1O | > 363 µM | 61.7 µM | –
10 | COC1(OC)CCC2C1C1CCC(OC)(OC)C21 (configuration not stated) | > 141 µM | > 141 µM | –
11 | O=C(O)CCC(=O)Oc1ccc(O)c2c1CCCC2=O | > 339 µM | > 339 µM | –
12 | C=CCNC(=S)/N=C\c1c(C)[nH]n(-c2ccccc2)c1=O | > 100 µM | 95.5 µM | –
13 | Cc1cccc2c1C(=O)C(C1OC(=O)c3ccccc31)C2 (configuration not stated) | > 100 µM | > 100 µM | –
14 | COc1ccc(/C=C/c2ccc3ccccc3[n+]2C)cc1OC | 0.0631 µM | 52.5 µM | –
15 | O=C(CC(=O)c1ccccc1)C(=O)NC12CC3CC(CC(C3)C1)C2 | > 11.5 µM | > 11.5 µM | –
16 | O=C(c1ccccc1)N1C(=S)N=C(Nc2ccccc2)C1=Nc1ccccc1 | > 200 µM | > 200 µM | –
17 | C/C=C/C(=O)[O-].N.N.N.N.N.[Co+3].[O-][Cl+3]([O-])([O-])[O-] | – | – | inactive
18 | Clc1ccc(C2ON=C(c3ccccc3)N2C23CC4CC(CC(C4)C2)C3)c(Cl)c1 (configuration not stated) | > 200 µM | > 200 µM | –
19 | O=C1C(=Cc2ccc([N+](=O)[O-])cc2)C(=O)c2ccccc21 | > 49 µM | 11.7 µM | –
20 | CC(O)c1nc2c3ccccc3ccc2n1C (configuration not stated) | > 776 µM | 389 µM | –
21 | CCCCCCCCCCCCC(=O)NCC(=O)NC(Cc1ccccc1)C(=O)Oc1ccc([N+](=O)[O-])cc1 (configuration not stated) | > 200 µM | 5.25 µM | –
22 | c1ccc(C2=NOC3COc4ccccc4OCC23)cc1 (configuration not stated) | > 93.3 µM | > 93.3 µM | –
23 | O=c1cc2cc(O)[nH]c(=O)c2c(O)[nH]1 | – | – | inactive

Row | Structure (SMILES) | EC50 | IC50 | outcome
24 | O=c1c(-c2ccccc2)c2oc(c1-c1ccccc1)CSCc1cccc(c1)CSC2 | > 1.7 µM | > 1.7 µM | –
25 | Cn1cnc([N+](=O)[O-])c1Sc1ccccc1N | > 525 µM | 61.7 µM | –
26 | COC(=O)c1c(-c2cc(OC)c(OC)c(OC)c2)oc2ccccc2c1=O | > 97.7 µM | 1.45 µM | –
27 | CN(C)C[C@H]1C2C=CC(C2)[C@@H]1CO (some centres not stated) | > 490 µM | > 490 µM | –
28 | COC(=O)C1CSC(c2csc(CCN)n2)=N1 (configuration not stated) | – | – | inactive
29 | CC(=O)OC(Cc1c(O)c2c(C)cccc2oc1=O)C(C)(C)O (configuration not stated) | > 200 µM | 91.2 µM | –
30 | CCOC(=O)N1CCC(=O)C(CNC23CC4CC(CC(C4)C2)C3)C1 (configuration not stated) | > 4170 µM | 204 µM | –
31 | C/C(=N/N=C(\[O-])c1ccncc1)C(F)(F)F.C/C(=N\N=C(/[O-])c1ccncc1)C(F)(F)F.[Ni+2] | > 200 µM | 89.1 µM | –
32 | CSC1(C)CC2C(CC1N1CCCCC1)C2(C)C (configuration not stated) | > 93.3 µM | 44.7 µM | –
33 | COc1ccccc1C1(c2c(OC(C)C)c(=O)c2=O)SCCCS1 | > 200 µM | 138 µM | –
34 | COc1ccc2nc3c([N+](=O)[O-])ccc4c3c(c2c1)NCCN4CCO | > 200 µM | 0.398 µM | –
35 | COc1ccc(-c2nc(Sc3c([N+](=O)[O-])ncn3C)n[nH]2)cc1 | > 537 µM | 0.562 µM | –
36 | C[N+]1(CCNP(=S)(NCC[N+]2(C)Cc3c(ccc4c3OCO4)C3C2c2cc4c(cc2C[C@@H]3O)OCO4)NCC[N+]2(C)Cc3c(ccc4c3OCO4)C3C2c2cc4c(cc2C[C@@H]3O)OCO4)Cc2c(ccc3c2OCO3)C2C1c1cc3c(cc1C[C@H]2O)OCO3 (some centres not stated) | > 380 µM | 4.68 µM | –
37 | Cc1ccccc1NC(=O)NC(Oc1ccccc1)(C(F)(F)F)C(F)(F)F | > 200 µM | > 200 µM | –
38 | O=C(O)c1cc(Cl)cc(NC(=O)C(Cl)Cl)c1Cl | > 794 µM | 617 µM | –
39 | COC(=O)CCC(=O)Nc1ccc(Cl)cc1C | – | – | inactive
40 | CC1Cc2c(cc(N)nc2Br)NC1=O (configuration not stated) | > 200 µM | 95.5 µM | –
41 | CC/C(Cl)=N\OC(=O)Nc1ccc(C#N)cc1 | > 200 µM | 18.2 µM | –
42 | C[C@@H](CO)C1=C(O)c2ccc3c(c2C(=O)C1=O)CCCC3(C)C | > 200 µM | 15.1 µM | –
43 | CC(C)(C)c1onc2c1C(=O)c1ccccc1-2 | > 200 µM | 117 µM | –
44 | NS(=O)(=O)c1nnc(NC(=O)c2ccccc2)s1 | > 200 µM | > 200 µM | –
45 | O=P(Oc1ccccc1)(Oc1ccccc1)N1CCOCC1 | > 200 µM | 170 µM | –
46 | CCCCCCCC(=O)c1ccc(O)c(C(=O)Nc2ccc(C(F)(F)F)cc2)c1 | > 33.1 µM | 5.01 µM | –

Row | Structure (SMILES) | EC50 | IC50 | outcome
47 | c1ccc(CN2COc3ccc4c5c(ccc4c3C2)OCN(Cc2ccccc2)C5)cc1 | > 2.45 µM | > 2.45 µM | –
48 | COc1cc2nncc(SCc3ccccc3)c2cc1OC | > 85.1 µM | > 85.1 µM | –
49 | C=C1C2=C(CCCC2)C(=O)OC12CCCCC2 | > 100 µM | > 100 µM | –
50 | CCN1CCOC(c2ccccc2)C1c1ccccc1 (configuration not stated) | > 200 µM | 129 µM | –
51 | CC(=O)NNc1nc(C)c(C(=O)NNC(=O)C(=O)Nc2ccc([N+](=O)[O-])cc2C#N)s1 | > 407 µM | 331 µM | –
52 | CC1=C(O[Si](C(C)C)(C(C)C)C(C)C)C2CC1(OS(=O)(=O)C(F)(F)F)[C@H]1C(=O)N(c3ccccc3)C(=O)[C@@H]21 (some centres not stated) | > 4.79 µM | > 4.79 µM | –
53 | S=C1NCCO1 | > 200 µM | 105 µM | –
54 | O=C(CCl)Nc1ccc(SSc2ccc(NC(=O)CCl)cc2)cc1 | > 2 µM | 1.35 µM | –
55 | CC1CC/C(=C\c2ccc(Cl)cc2)c2nc(N)c(C#N)c(-c3ccc(Cl)cc3)c21 (configuration not stated) | > 200 µM | 155 µM | –
56 | CCOc1cc2ccc3c4cc(OC)c(OC)cc4cnc3c2cc1OCC | > 36.3 µM | > 36.3 µM | –
57 | CC(C)Cc1ccc(C(C)C(=O)O)cc1 (configuration not stated) | > 1200 µM | 389 µM | –
58 | Cc1ccc2c(c1)CC1(Cc3cccc(C)c3C1=O)C2=O (configuration not stated) | > 200 µM | > 200 µM | –
59 | NC(=O)c1ncn(Cc2ccccc2)c1CNC(N)=S | – | – | inactive
60 | CCN(CC)C(=O)c1cccc2c1OCO2 | > 1120 µM | > 1120 µM | –
61 | CC(C)C1OC(=O)/C=C/C=C/C=C/C=C/C=C/CC(O)CC(O)CC(O)CC(O)CC(O)CC(O)CC(O)CC(O)/C=C/C1C (configuration not stated) | > 200 µM | > 200 µM | –
62 | COc1cc2c(cc1OC)C13CCC(O)CC1=CC2(C)O3 (configuration not stated) | > 646 µM | > 646 µM | –
63 | CCc1ccccc1NC(=O)CC1NC(=O)CS1 (configuration not stated) | > 339 µM | 214 µM | –
64 | CCC[CH2][Sn]([CH2]CCC)([CH2]CCC)/[C](=C/[Si](C)(C)c1ccccc1)c1ccc2c(c1)OCO2 | > 3.47 µM | > 3.47 µM | –
65 | CN(C)CCCN1C(=S)N(CCCN(C)C)c2c3cc(O)ccc3nc3c([N+](=O)[O-])ccc1c23 | > 2 µM | 0.417 µM | –
66 | N#CC(c1cc2c(cc1Br)OCO2)N1CCOCC1 (configuration not stated) | > 200 µM | 9.77 µM | –
67 | C/C=C/CC1(C(C)C)C(=O)NC(=S)NC1=O | > 200 µM | > 200 µM | –
68 | CCC(=O)c1c(NOC2OC(COC(C)=O)C(OC(C)=O)C(OC(C)=O)C2OC(C)=O)nc(OC)n(C)c1=O (configuration not stated) | > 46.8 µM | > 46.8 µM | –
69 | CN1BN(C)BN(C)B1 | > 2040 µM | > 2040 µM | –

Row | Structure (SMILES) | EC50 | IC50 | outcome
70 | COc1cc(/C=N/Nc2nnc3c4ccccc4c4ncccc4c3n2)cc(OC)c1OC | > 100 µM | 57.5 µM | –
71 | Cc1cc(C)c2c(c1C)CN1CN2Cc2c(C)c(C)cc(C)c21 | – | – | inactive
72 | Nc1c(Cl)cccc1-c1c[nH]cc1Cl | > 794 µM | > 100 µM | –
73 | CCOc1nc(C(=O)O)cc2ccsc12 | > 589 µM | 501 µM | –
74 | CC[C@]12C=CCN3CCC4(c5cc([C@]6(C(=O)OC)C[C@H]7CN(CCc8c6[nH]c6ccccc86)CC6CCCCC67)c(OC)cc5N(C)C4[C@@](O)(C(=O)OC)C1OC(C)=O)[C@@H]32 (some centres not stated) | > 89.1 µM | 1.7 µM | –
75 | CCOC(=O)C/C(C)=N\NC(=O)c1ccncc1 | > 200 µM | > 200 µM | –
76 | O=C1CCC(c2nc3cc(Cl)ccc3o2)C(=O)N1 (configuration not stated) | > 245 µM | > 245 µM | –
77 | Cc1nc2ccccc2c(N)c1-c1cc(C)c2c(C)nc3ccccc3c2n1 | > 200 µM | 3.89 µM | –
78 | O=c1cc(SCc2ccccc2Cl)[nH]c(=O)[nH]1 | > 115 µM | > 115 µM | –
79 | Cc1[nH]cc2c1C(c1ccccc1F)=NCC(=O)N2 | > 229 µM | > 229 µM | –
80 | O=C1/C(=C/c2cccc(F)c2)CCCc2ccccc21 | > 200 µM | 19.5 µM | –
81 | Cc1ccc(O)c(N=Nc2ccc(S(=O)(=O)O)cc2)n1 | – | – | inactive
82 | C=Cc1nc(C#N)c(N)o1 | – | – | inactive
83 | CCN(CC)CCN(C(=Nc1ccccc1)N1CCCCC1)c1ccccc1 | > 200 µM | 1.29 µM | –
84 | CC(C)=CCC/C(C)=C/CCC(C(=O)COCc1ccccc1)P1(=O)OC(C)(C)CN1C(C)(C)C (configuration not stated) | > 200 µM | 61.7 µM | –
85 | CCOC(=O)C1=C(C)NC(CO)=C(C(=O)OCC)C1c1cccc([N+](=O)[O-])c1 (configuration not stated) | > 2 µM | 0.355 µM | –
86 | O=C1c2ccccc2C(c2ccccc2)(N2CCCCC2)N1c1ccccc1 (configuration not stated) | > 17.4 µM | > 17.4 µM | –
87 | Cc1nc2ccc(S(=O)(=O)Nc3ccccc3Cl)cc2c(=O)n1NC(=O)CNc1ccccc1Cl | > 200 µM | 170 µM | –
88 | N=C(OC1CCCCC1)N1CCOCC1 | > 200 µM | > 200 µM | –
89 | COc1ccc(N=C(C)c2ccncc2)cc1 | > 200 µM | 10.5 µM | –
90 | NS(=O)(=O)c1nnc(NS(=O)(=O)c2ccc(Cl)cc2)s1 | > 200 µM | > 200 µM | –
